The record followed here is patent US20040053913A1, “Process for preparing 6-alkylidene penem derivatives” (priority 2002, published 2004).

Series [1] has as its target class B enzyme CcrA from Bacteroides fragilis (Bacteroides fragilis, UniProt P25910). The series can be described thus: β-Lactamase inhibition, spectrophotometric nitrocefin hydrolysis assay, CcrA. It counts as biochemical. As to conditions: enzyme 1.2 nM; 10 minutes preincubation at 25° C.; nitrocefin 50 μg/ml; 50 mM PO4, pH 7.0; read-out: IC50 (nM) Ccr-A. On the procedure: (§1) IC50 Determination for the Penem Inhibitor
(§2) β-Lactamase inhibitory activity of the penem inhibitors was determined spectrophotometrically as described by Bush et al., [Bush, K., Macalintal, C., Rasmussen, B. A., Lee, V. and Yang, Y. Antimicrobial Agents and Chemotherapy 1993, 37, 851]. Homogeneously purified class A β-lactamases TEM-1 from E. coli and Imi-1 from Enterobacter cloacae, class B enzyme CcrA from Bacteroides fragilis and class C enzyme AmpC from Enterobacter cloaca were employed in the assay. The enzyme concentrations for TEM-1, Imi-1, CcrA and AmpC were 4.3, 7.1, 1.2 and 2.1 nM, respectively. A wide range of inhibitor concentrations were prepared in 50 mM PO4, pH 7.0 to include the possible IC50 values. The substrate used to initiate the enzyme reaction was nitrocefin at 50 μg/ml in the same buffer as the inhibitor. Initially the enzyme and inhibitor (20 μl each) were preincubated for 10 minutes at 25° C. prior to the addition of 160 μl volume of nitrocefin. Initial rates of hydrolysis were monitored for 5 minutes at 495 nm using a Molecular Devices Spectra Max 250 with kinetic protocol of SoftMax Program. Readings from the Spectra Max 250 were exported and transferred to Microsoft Excel. The percent of inhibition of each inhibitor concentration was calculated based on the control enzyme activity. The inhibitor concentration that caused a 50% reduction in the enzymatic activity (IC50) was determined graphically.

In series [2] the target is class C enzyme AmpC from Enterobacter cloaca (Enterobacter cloacae, UniProt P05364). The series can be described thus: β-Lactamase inhibition, spectrophotometric nitrocefin hydrolysis assay, AmpC. It counts as biochemical. Particulars: enzyme 2.1 nM; 10 minutes preincubation at 25° C.; nitrocefin 50 μg/ml; 50 mM PO4, pH 7.0; read-out: IC50 (nM) Amp-C. How it is done: as §1, §2
Sequence of class C enzyme AmpC from Enterobacter cloaca (P05364 21-381): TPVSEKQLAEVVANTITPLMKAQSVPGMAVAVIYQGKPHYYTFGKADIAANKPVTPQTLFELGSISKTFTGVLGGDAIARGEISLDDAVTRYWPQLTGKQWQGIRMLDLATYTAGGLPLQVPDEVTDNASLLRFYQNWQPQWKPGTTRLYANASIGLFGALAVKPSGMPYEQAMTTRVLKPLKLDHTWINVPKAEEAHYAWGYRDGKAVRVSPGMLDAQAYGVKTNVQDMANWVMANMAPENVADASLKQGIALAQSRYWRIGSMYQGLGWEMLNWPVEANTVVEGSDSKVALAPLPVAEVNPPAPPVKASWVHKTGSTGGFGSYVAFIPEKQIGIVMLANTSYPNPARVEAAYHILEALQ

For series [3], the target named is class A β-lactamases TEM-1 from E. coli (Escherichia coli, UniProt P62593). The series can be described thus: β-Lactamase inhibition, spectrophotometric nitrocefin hydrolysis assay, TEM-1. It counts as biochemical. As to conditions: enzyme 4.3 nM; 10 minutes preincubation at 25° C.; nitrocefin 50 μg/ml; 50 mM PO4, pH 7.0. On the procedure: as §1, §2
Sequence of class A β-lactamases TEM-1 from E. coli (P62593 24-286 limits assumed): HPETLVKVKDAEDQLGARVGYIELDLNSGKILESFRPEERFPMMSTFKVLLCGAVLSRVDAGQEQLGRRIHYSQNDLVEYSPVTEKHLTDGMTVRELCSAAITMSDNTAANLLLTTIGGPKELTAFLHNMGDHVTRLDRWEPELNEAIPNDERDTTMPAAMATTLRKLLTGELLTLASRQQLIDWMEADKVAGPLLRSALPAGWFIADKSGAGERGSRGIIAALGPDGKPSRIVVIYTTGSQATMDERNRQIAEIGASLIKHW
In series [4] the target is class A β-lactamase Imi-1 from Enterobacter cloacae (Enterobacter cloacae, UniProt Q46991). The series can be described thus: β-Lactamase inhibition, spectrophotometric nitrocefin hydrolysis assay, Imi-1. The series is classed as biochemical. Particulars: enzyme 7.1 nM; 10 minutes preincubation at 25° C.; nitrocefin 50 μg/ml; 50 mM PO4, pH 7.0. On the procedure: as §1, §2
Sequence of class A β-lactamase Imi-1 from Enterobacter cloacae (Q46991 entry or part of it): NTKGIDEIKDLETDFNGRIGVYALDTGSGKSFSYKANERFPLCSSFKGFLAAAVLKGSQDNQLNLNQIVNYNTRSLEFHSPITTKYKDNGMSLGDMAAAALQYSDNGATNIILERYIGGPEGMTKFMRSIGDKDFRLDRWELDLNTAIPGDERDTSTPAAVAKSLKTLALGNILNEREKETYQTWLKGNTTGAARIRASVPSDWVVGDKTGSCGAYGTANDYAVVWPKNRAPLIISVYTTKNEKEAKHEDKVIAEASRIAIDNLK

Series [5] is described as follows: Comparative thermal stability in a solid state, residual ratio checked by HPLC. It counts as physicochemical. Particulars: for Residual Ratio (%): Temp. 40° C. in a solid state, HPLC. An excerpt: One important aspect of the present invention relates to the use of stable bromopenem intermediate 16. The stability of the intermediate is relevant to the aldol condensation step where the decomposition is minimized [as well as to the shelf life stability]. In this invention the key intermediate 16, where R=para-Nitrobenzyl group is a stable and a crystalline intermediate. […] (Table 1) This remarkable stability of intermediate 16 enhances the shelf-life time of the compound as well as the scale-up feasibility. As mentioned above, protection of carboxyl group with para-Nitrobenzyl group reduces the number of steps in the present process of preparing the final compound of structure I. The crystalline nature of the intermediate was established by X-ray diffraction studies.
Column: Inertsil SIL 100-5 4.6×150 mm (GL Science Inc.)
Mobile phase; Ethylacetae: n-hexane (10:35 vv)
Wave length: […]; Flow rate: 1.0 ml/min @ Room temperature.

Counter-ions that a name gives are not always drawn.

Sequence of class B enzyme CcrA from Bacteroides fragilis (P25910 19-249): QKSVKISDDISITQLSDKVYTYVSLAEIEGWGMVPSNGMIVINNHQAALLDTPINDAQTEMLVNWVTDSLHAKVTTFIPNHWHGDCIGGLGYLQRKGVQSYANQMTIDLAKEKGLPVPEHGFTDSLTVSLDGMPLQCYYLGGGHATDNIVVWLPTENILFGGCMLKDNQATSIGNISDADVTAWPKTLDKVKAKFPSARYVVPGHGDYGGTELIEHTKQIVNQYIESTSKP

On to `O=C(O)C1=CS[C@@H]2/C(=C\c3c[nH]c(Cc4ccccc4)n3)C(=O)N12` [Example 3, (5R), (6Z)-6-(2-Benzyl-1H-imidazol-4-ylmethylene)-7-oxo-4-thia-1-aza-bicyclo[3.2.0]hept-2-ene-2-carboxylic Acid Sodium Salt], for which the 50% inhibitory concentration (IC50) (in general, the midpoint of a concentration-inhibition curve) stood at 190 nM in series [1], 0.8 nM in series [2], 1.2 nM in series [3] and 1300 nM in series [4].

Regarding `O=C(O)C1=CS[C@@H]2/C(=C\c3c[nH]c(-c4nccs4)n3)C(=O)N12` [Example 4, (5R), (6Z)-6-(2-thiazol-2-yl-1H-imidazol-4-ylmethylene)-7-oxo-4-thia-1-aza-bicyclo[3.2.0]hept-2-ene-2-carboxylic Acid Sodium Salt], the half-inhibitory concentration (IC50) is 230 nM in series [1], 2.3 nM in series [2], 0.4 nM in series [3] and 5.8 nM in series [4].

As to `O=C(O)C1=CS[C@@H]2/C(=C\c3c[nH]c(-c4ccccc4)n3)C(=O)N12` [Example 6, (5R), (6Z)-6-(2-phenyl-1H-imidazol-4-ylmethylene)-7-oxo-4-thia-1-aza-bicyclo[3.2.0]hept-2-ene-2-carboxylic Acid], the IC50 was found to be 220 nM in series [1], 2.9 nM in series [2], 5.6 nM in series [3] and 11 nM in series [4].

In the case of `O=C(OCc1ccc([N+](=O)[O-])cc1)C1=CS[C@@H]2[C@@H](Br)C(=O)N12` [Example 16], the “comparative thermal stability (in words)” value in series [5] (intermediate 16 versus intermediate Q) was “more stable than the intermediate Q”.

Take `O=C(OCc1ccc([N+](=O)[O-])cc1)C1=CS[C@@H]2[C@@H](Br)C(=O)N12` [Formula 16, 4-nitrobenzyl (5R,6S)-6-bromopenem-3-carboxylate]: the “Residual Ratio (%)” value is 100.0% in series [5] (Day 0); 100.0% in series [5] (Day 1); 100.0% in series [5] (Day 2); 100.0% in series [5] (Day 4); 98.7% in series [5] (Day 7); 98.4% in series [5] (Day 14).

Take `COc1ccc(COC(=O)C2=CS[C@@H]3[C@@H](Br)C(=O)N23)cc1` [Formula Q, reference compound]: the “Residual Ratio (%)” value in series [5] (Day 0) is reported as 100.0%; in series [5] (Day 1), 99.7%; in series [5] (Day 2), 95.3%; in series [5] (Day 4), 72.9%; in series [5] (Day 7), 69.8%.

As for “(5R), (6Z)-6-(1-Methyl-2-thiazol-2-yl-1H-imidazol-4-ylmethylene)-7-oxo-4-thia-1-aza-bicyclo[3.2.0]hept-2-ene-2-carboxylic Acid Sodium Salt [Example 5]”, the IC50 in series [1] is 260 nM; in series [2], 5.6 nM; in series [3], 5.2 nM; in series [4], 68 nM.

For the molecule “(5R), (6Z)-6-(3,1′-Dimethyl-3H,1′H-[2,4′]biimidazolyl-4-ylmethylene)-7-oxo-4-thia-1-aza-bicyclo[3.2.0]hept-2-ene-2-carboxylic Acid Sodium Salt [Example 2]”, the IC50 in series [1] was determined as 250 nM; in series [2], 2.1 nM; in series [3], 4.1 nM; in series [4], 6 nM.
